Data published in patent US11564902B2, “Extended duration local anesthetic formulation” (Ventis Pharma, priority 2015, dated 2023).

Legend:
[1] = cited from earlier work; for major nerve block duration: reportedly
[2] = with or without epinephrine; cited from earlier work
[3] = cited from earlier work
[4] = contact with blood; cited from earlier work
[5] = powdered form, room temperature; cited from earlier work
[6] = Toxic dose of local anesthetics on intravascular absorption; conditions: inferred from immediate hydrolysis on contact with blood
Source text: Short duration local anesthetics are generally used in 1%-2% concentrations. Current applications for short duration local anesthetics are dictated by toxicity; these toxicities vary by drug. […] Intravascular injection or a toxic dosage carries the risk of potential complications such as cardiac arrhythmias or seizures.
Total dose is adjusted to the specific purpose for the local anesthetic administration.

## CCCCN1CCCCC1C(=O)Nc1c(C)cccc1C (stereo not shown) [bupivacaine]
[1]
  major nerve block duration: three to twelve
[1]; transversus abdominis plane (TAP) block, 30-35 ml per side, abdominal procedures
  analgesic duration: 12 to 16 h
[2]
  toxic dose: 2.5 mg per kg

## CCCN(CC)C(CC)C(=O)Nc1c(C)cccc1C (stereo not shown) [etidocaine]
[1]
  major nerve block duration: three to twelve

## CCCCNc1ccc(C(=O)OCCN(C)C)cc1 [tetracaine]
[3]; 0.2% concentration
  motor blockade: minimal motor blockade
  neurotoxicity: not neurotoxic
[3]; applied directly to nerve structures
  toxic concentration: 1%
[4]
  metabolism in blood: immediately metabolized in contact with blood
[5]
  stability: stable at room temperature
[6]
  actual toxic dose: higher than 5 mg/kg
